From US9862682B2, “Functionalized pegylated cyanine compounds, pharmaceutical compositions, and methods of use thereof” (BroadPharm, priority 2016, dated 2018) come the findings set out here.

A short description of the series: Photophysical properties of cyanine dyes in dimethyl sulfoxide (DU 800 spectrophotometer). It counts as physicochemical. The note with it: for Excitation (nm): absorption. The source says: The photophysical properties of a variety of cyanine dyes in dimethyl sulfoxide has been measured by the DU 800 spectrophotometer.

In the case of `COCCOCCOCCOCC[N+]1=C(/C=C/C=C/C=C2/N(CCOCCOCCOCCN)c3ccccc3C2(C)C)C(C)(C)c2ccccc21` [A2], the “Emission (nm)” value came to 667 nm, the “Extinction Coefficient” value was 1.63 × 10^5 and the “Excitation (nm)” value is recorded as 649 nm.

On to `C#CCOCCOCCOCCOCCOc1ccc2c(c1)C(C)(C)\C(=C/C=C\C=C/C1=[N+](C)c3ccc(OCCOCCOCCOCCOC)cc3C1(C)C)N2C` [B1], for which the “Emission (nm)” value was found to be 699 nm, the “Extinction Coefficient” value is on record as 6.12 × 10^4 and the “Excitation (nm)” value is listed as 649 nm.

`CC1(C)C(/C=C/C=C/C=C2\N(CCOCCOCCOCCOCCC(=O)NCCN3C(=O)C=CC3=O)c3ccccc3C2(C)C)=[N+](CCOCCOCCOCCN=[N+]=[N-])c2ccccc21` [D3]: the “Emission (nm)” value is listed as 667 nm, the “Extinction Coefficient” value was 6.94 × 10^4 and the “Excitation (nm)” value is listed as 649 nm.

Take `COCCOCCOCCOCC[N+]1=C(/C=C/C=C/C=C2\N(CCOCCOCCOCCOCCC(=O)NCCC(=O)N3Cc4ccccc4C#Cc4ccccc43)c3ccccc3C2(C)C)C(C)(C)c2ccccc21` [D4]: the “Emission (nm)” value was determined as 667 nm, the “Extinction Coefficient” value is given as 6.42 × 10^4 and the “Excitation (nm)” value stood at 649 nm.

As for `COCCOCCOCCOCC[n+]1c(/C=C/C=C/C=C2\Sc3ccccc3N2CCOCCOCCOCCC(=O)O)sc2ccccc21` [E1], the “Emission (nm)” value turned out to be 682 nm, the “Extinction Coefficient” value is reported as 7.11 × 10^4 and the “Excitation (nm)” value was determined as 661 nm.

`O=C(O)CCOCCOCCOCCN1\C(=C/C=C\C=C\c2sc3ccccc3[n+]2CCOCCOCCOCCC(=O)O)Sc2ccccc21` [E2]: the “Emission (nm)” value amounted to 682 nm, the “Extinction Coefficient” value was 7.31 × 10^4 and the “Excitation (nm)” value stood at 661 nm.

For `CC1(C)C(/C=C/C2=C(Cl)C(=C/C=C3/N(CCOCCOCCOCCN=[N+]=[N-])c4ccccc4C3(C)C)/CCC2)=[N+](CCOCCOCCOCCN=[N+]=[N-])c2ccccc21` [F1], the “Emission (nm)” value worked out at 817 nm, the “Extinction Coefficient” value was 1.16 × 10^5 and the “Excitation (nm)” value was determined as 785 nm.

In the case of `COCCOCCOCCOCC[N+]1=C(/C=C/C=C/C=C2\Sc3ccccc3N2CCOCCOCCOCCC(=O)O)C(C)(C)c2ccccc21` [G1], the “Emission (nm)” value came out at 685 nm, the “Extinction Coefficient” value is given as 7.65 × 10^4 and the “Excitation (nm)” value was found to be 661 nm.

Turning to `COCCOCCOCCOCCN1/C(=C/C=C/C=C/C2=[N+](CCOCCOCCOCCN=[N+]=[N-])c3ccccc3C2(C)C)Sc2ccccc21` [G2], the “Emission (nm)” value was 671 nm, the “Extinction Coefficient” value is 4.23 × 10^4 and the “Excitation (nm)” value was determined as 652 nm.
